In patent US20140081017A1, “Histone Deacetylase Inhibitors for Enhancing Activity of Antifungal Agents” (METHYLGENE INC., priority 2012, published 2014):
In brackets after ≈: the same amount, converted by molar mass. Like-named read-outs stand apart in the source and are kept apart here.

What was measured:
Candida albicans = assay: Minimal Inhibitory Concentration (MIC) assay, broth microdilution per CLSI; type: cell-based; settings: Candida albicans, read-out: Minimum Inhibitory Concentrations against Yeast Isolates, Candida albicans;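 also: two read times 24 hr and 48 hr of incubation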
Outline: (§1)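 Steps: overnight yeast growth on Sabouraud dextrose agar at 35° C; 0.5 McFarland saline suspension diluted 1:100 in RPMI (0.165 M MOPS, pH 7.0); inoculation into twofold compound dilutions; incubation 24-48 hr at 35° C; MIC scored as lowest concentration without visible growth.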

Candida parapsilosis = assay: as above; type: cell-based; settings: Lodderomyces parapsilosis, read-out: Minimum Inhibitory Concentrations against Yeast Isolates, Candida parapsilosis;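 also: two read times 24 hr and 48 hr of incubation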
Outline: as §1

Candida glabrata = assay: as above; type: cell-based; settings: Nakaseomyces glabratus, read-out: Minimum Inhibitory Concentrations against Yeast Isolates, Candida glabrata;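 also: two read times 24 hr and 48 hr of incubation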
Outline: as §1

C. glabrata = assay: Checkerboard FIC assay in combination with fluconazole (MIC alone and in combination, FICI); type: cell-based, Candida glabrata; settings: for FICI of combination resulting in fluconazole MIC of: 2 ug/mL / FICI of combination resulting in fluconazole MIC of: 4 ug/mL / FICI of combination resulting in fluconazole MIC of: 8 ug/mL: FICI calculated using a fluconazole MIC of 16 μg/mL; for FICI of combination resulting in fluconazole MIC of: 2 ug/mL (value in parenthesis) / FICI of combination resulting in fluconazole MIC of: 4 ug/mL (value in parenthesis) / FICI of combination resulting in fluconazole MIC of: 8 ug/mL (value in parenthesis): FICI using a fluconazole MIC of 128 μg/mL; for MIC: Nakaseomyces glabratus; for Multiple of compound MIC to synergize fluconazole MIC to 2 ug/mL / Multiple of compound MIC to synergize fluconazole MIC to 4 ug/mL / Multiple of compound MIC to synergize fluconazole MIC to 8 ug/mL: concentration in combination as multiple of the compound's MIC alone; for Multiple of compound MIC to synergize fluconazole MIC to 2 ug/mL: fluconazole MIC 2 ug/mL; for Multiple of compound MIC to synergize fluconazole MIC to 4 ug/mL: fluconazole MIC 4 ug/mL; for Multiple of compound MIC to synergize fluconazole MIC to 8 ug/mL: fluconazole MIC 8 ug/mL; for Concentration of Methylgene compound to synergize fluconazole MIC to 2 ug/mL / Concentration of Methylgene compound to synergize fluconazole MIC to 4 ug/mL / Concentration of Methylgene compound to synergize fluconazole MIC to 8 ug/mL: in combination with fluconazole; for Concentration of Methylgene compound to synergize fluconazole MIC to 2 ug/mL: fluconazole MIC lowered to 2 ug/mL; for Concentration of Methylgene compound to synergize fluconazole MIC to 4 ug/mL: fluconazole MIC lowered to 4 ug/mL; for Concentration of Methylgene compound to synergize fluconazole MIC to 8 ug/mL: fluconazole MIC lowered to 8 ug/mL
Outline: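 A fluconazole synergy checkerboard was run against C. glabrata in MOPS-buffered RPMI (pH 7.0) for about 48 h at 35 °C. Each agent was diluted 2-fold, with one row and one column holding each agent alone for MIC determination. FICI was calculated from these MICs, using a 0.5 McFarland inoculum diluted 1:100 per CLSI.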

[1] = 24 hr reading (first value of cell 24 hr/48 hr)
[2] = 48 hr reading (second value of cell 24 hr/48 hr)
[3] = MIC of the example compound alone against C. glabrata in the checkerboard assay, approximately 48 hr, read-out: Methylgene MIC
[4] = test compound alone, C. glabrata, approx. 48 hr at 35° C., read-out: Compound MIC

SMILES	MIC (Candida albicans; [1]) [µg/mL]	MIC (Candida albicans; [2]) [µg/mL]	MIC (Candida parapsilosis; [1]) [µg/mL]	MIC (Candida parapsilosis; [2]) [µg/mL]	MIC (Candida glabrata; [1]) [µg/mL]	MIC (Candida glabrata; [2]) [µg/mL]	FICI of combination resulting in fluconazole MIC of: 2 ug/mL (C. glabrata; C. glabrata)	FICI of combination resulting in fluconazole MIC of: 4 ug/mL (C. glabrata; C. glabrata)	FICI of combination resulting in fluconazole MIC of: 8 ug/mL (C. glabrata; C. glabrata)	FICI of combination resulting in fluconazole MIC of: 2 ug/mL (value in parenthesis) (C. glabrata; C. glabrata)	FICI of combination resulting in fluconazole MIC of: 4 ug/mL (value in parenthesis) (C. glabrata; C. glabrata)	FICI of combination resulting in fluconazole MIC of: 8 ug/mL (value in parenthesis) (C. glabrata; C. glabrata)	MIC (C. glabrata; [3]) [µg/mL]	MIC (C. glabrata; [4]) [µg/mL]	Multiple of compound MIC to synergize fluconazole MIC to 2 ug/mL (C. glabrata)	Multiple of compound MIC to synergize fluconazole MIC to 4 ug/mL (C. glabrata)	Multiple of compound MIC to synergize fluconazole MIC to 8 ug/mL (C. glabrata)	Concentration of Methylgene compound to synergize fluconazole MIC to 2 ug/mL (C. glabrata; C. glabrata) [µg/mL]	Concentration of Methylgene compound to synergize fluconazole MIC to 4 ug/mL (C. glabrata; C. glabrata) [µg/mL]	Concentration of Methylgene compound to synergize fluconazole MIC to 8 ug/mL (C. glabrata; C. glabrata) [µg/mL]
O=C(Cc1ccc(CCCCc2cccc(NS(=O)(=O)CCN3CCOCC3)c2)cc1)NO [Example 53, N-hydroxy-2-(4-(4-(3-(2-morpholinoethylsulfona-mido)phenyl)butyl)phenyl)acetamide]	> 64	> 64	> 64	> 64	16 (≈ 33.6 µM)	32 (≈ 67.3 µM)	0.313	0.250	0.375	0.266	0.156	0.188	16	16	(¼x)	(⅛x)	(⅛x)	4	2	2
O=C(Cc1ccc(CCCCC2CCCCC2)cc1)NO [Example 8, 2-(4-(4-cyclohexylbutyl)phenyl)-N-hydroxyacetamide]	0.25 (≈ 0.864 µM)	0.25 (≈ 0.864 µM)	0.12 (≈ 0.415 µM)	0.25 (≈ 0.864 µM)	0.12 (≈ 0.415 µM)	0.12 (≈ 0.415 µM)	0.543	0.605	0.730	0.496	0.511	0.543	0.25	0.25	(½x)	(½x)	(½x)	0.12	0.12	0.12
CN1CCN(CCS(=O)(=O)Nc2ccc(CCCCc3ccc(CC(=O)NO)cc3)cc2)CC1 [Example 52, N-hydroxy-2-(4-(4-(4-(2-(4-methylpiperazin-1-yl)ethylsulfonamido)phenyl)butyl)phenyl)acetamide]	> 64	> 64	> 64	> 64	8 (≈ 16.4 µM)	> 64	> 0.563	> 0.625	> 0.500	> 0.516	> 0.531	> 0.313	> 16	> 16	–	–	–	16	16	8
